Entries after “also recorded” stand apart in the source; their conditions may differ.
Key:
baboons = details: in vivo
Bacillus anthracis = test system: Bacillus anthracis; set-up: species or system baboons (Papio c. cynocephalus); details: in vivo

Substance | circulating bDNA after toxin administration (baboons) | blood cultures (bacterial colony counts) (Bacillus anthracis) | decreases in fibrinogen (and in platelets) (Bacillus anthracis) | liver and kidney function (ALT, AST, BUN, creatinine) (Bacillus anthracis) | peak bDNA load (16S bacterial DNA, plasma qPCR) (Bacillus anthracis) | peak plasma mtDNA (CytB) level during anthrax bacteremia (Bacillus anthracis) | plasma bDNA (16S-rDNA) level and fall off over time (Bacillus anthracis) | plasma mtDNA levels after resolution of bacteremia (Bacillus anthracis) | respiratory rate (RR) / tachypnea (Bacillus anthracis) | survival (Bacillus anthracis)
Shiga toxin 1 [ST1] | insignificant levels | – | – | – | – | – | – | – | – | –
activated protein C [aPC] | – | no effect; also recorded: no significant difference between groups | not mitigated | markedly spared | no significant effect | approximately 200 ng/mL | essentially identical fall off; also recorded: no effect; also recorded: does not affect | mtDNA levels began falling after 24 hours; also recorded: plasma mtDNA levels decayed; also recorded: reduction in mtDNA | RR remained normal; also recorded: prevents tachypnea; also recorded: RR was unchanged | the animals survived; also recorded: all these animals survived
